Data from PMC5562879, “Reduction of the off-pathway iron-sulphur cluster N1a of Escherichia coli respiratory complex I restrains NAD^+ dissociation” (Scientific Reports, 2017).

Assays:
[1] = molecular target: T1, E. coli respiratory complex I (NADH:ubiquinone oxidoreductase) (Escherichia coli, UniProt P31979); assay: NADH:ferricyanide oxidoreductase assay, NADH oxidation at […] nm, Lineweaver-Burk secondary plots; assay type: biochemical; conditions: reaction started by enzyme (oxidised enzyme), ferricyanide 0.25-2 mM, pH 6.0, 30 °C, ping-pong-pong with double substrate inhibition, competitive with ferricyanide at the reduced
T1 construct: gene nuoF; whole complex from the nuo operon, His-tagged NuoF, overproduced in E. coli, DDM-solubilised, purified by anion exchange, Ni-IDA and Source Q; with NADH-quinone oxidoreductase subunit E; NADH-quinone oxidoreductase subunit G; NADH-quinone oxidoreductase subunit C/D; NADH-quinone oxidoreductase subunit B; NADH-quinone oxidoreductase subunit I; NADH-quinone oxidoreductase subunit A; NADH-quinone oxidoreductase subunit H; NADH-quinone oxidoreductase subunit J; NADH-quinone oxidoreductase subunit K; NADH-quinone oxidoreductase subunit L; NADH-quinone oxidoreductase subunit M; NADH-quinone oxidoreductase subunit N
T1 sequence (P0AFD1 whole entry V96P/N142M, form open, one chain of several): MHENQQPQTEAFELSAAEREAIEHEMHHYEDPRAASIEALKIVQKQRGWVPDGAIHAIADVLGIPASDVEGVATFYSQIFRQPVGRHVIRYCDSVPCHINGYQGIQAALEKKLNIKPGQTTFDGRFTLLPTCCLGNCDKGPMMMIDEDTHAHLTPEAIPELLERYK

[2] = molecular target: T2, E. coli respiratory complex I (NADH:ubiquinone oxidoreductase) (Escherichia coli, UniProt P31979); assay: as above; assay type: biochemical; conditions: reaction started by enzyme (oxidised enzyme), ferricyanide 0.25-2 mM, pH 6.0, 30 °C, ping-pong-pong with double substrate inhibition, competitive with ferricyanide at the reduced; remark: listed apart in the source
T2 construct: gene nuoF; whole complex from the nuo operon, His-tagged NuoF, overproduced in E. coli, DDM-solubilised, purified by anion exchange, Ni-IDA and Source Q; with NADH-quinone oxidoreductase subunit E; NADH-quinone oxidoreductase subunit G; NADH-quinone oxidoreductase subunit C/D; NADH-quinone oxidoreductase subunit B; NADH-quinone oxidoreductase subunit I; NADH-quinone oxidoreductase subunit A; NADH-quinone oxidoreductase subunit H; NADH-quinone oxidoreductase subunit J; NADH-quinone oxidoreductase subunit K; NADH-quinone oxidoreductase subunit L; NADH-quinone oxidoreductase subunit M; NADH-quinone oxidoreductase subunit N
T2 sequence (P31979 1-445): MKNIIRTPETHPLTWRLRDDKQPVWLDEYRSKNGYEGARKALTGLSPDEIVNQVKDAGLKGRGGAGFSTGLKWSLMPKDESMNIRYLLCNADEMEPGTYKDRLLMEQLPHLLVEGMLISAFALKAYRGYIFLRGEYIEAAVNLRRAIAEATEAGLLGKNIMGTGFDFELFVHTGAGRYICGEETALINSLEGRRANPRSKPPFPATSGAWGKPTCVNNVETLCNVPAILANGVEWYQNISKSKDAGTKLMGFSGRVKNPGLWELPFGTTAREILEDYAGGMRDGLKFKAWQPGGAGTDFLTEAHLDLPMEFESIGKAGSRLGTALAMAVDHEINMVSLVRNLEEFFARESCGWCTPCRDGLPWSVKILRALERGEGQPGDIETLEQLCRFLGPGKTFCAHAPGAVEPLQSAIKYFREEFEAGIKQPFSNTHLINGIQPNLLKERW
T2 sequence (P0AFD1 1-166 partner): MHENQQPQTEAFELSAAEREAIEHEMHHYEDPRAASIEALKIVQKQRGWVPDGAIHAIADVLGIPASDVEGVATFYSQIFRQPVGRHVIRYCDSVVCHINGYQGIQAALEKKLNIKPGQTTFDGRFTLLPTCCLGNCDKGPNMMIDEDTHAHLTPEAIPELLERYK
T2 sequence (P33602 2-908 partner): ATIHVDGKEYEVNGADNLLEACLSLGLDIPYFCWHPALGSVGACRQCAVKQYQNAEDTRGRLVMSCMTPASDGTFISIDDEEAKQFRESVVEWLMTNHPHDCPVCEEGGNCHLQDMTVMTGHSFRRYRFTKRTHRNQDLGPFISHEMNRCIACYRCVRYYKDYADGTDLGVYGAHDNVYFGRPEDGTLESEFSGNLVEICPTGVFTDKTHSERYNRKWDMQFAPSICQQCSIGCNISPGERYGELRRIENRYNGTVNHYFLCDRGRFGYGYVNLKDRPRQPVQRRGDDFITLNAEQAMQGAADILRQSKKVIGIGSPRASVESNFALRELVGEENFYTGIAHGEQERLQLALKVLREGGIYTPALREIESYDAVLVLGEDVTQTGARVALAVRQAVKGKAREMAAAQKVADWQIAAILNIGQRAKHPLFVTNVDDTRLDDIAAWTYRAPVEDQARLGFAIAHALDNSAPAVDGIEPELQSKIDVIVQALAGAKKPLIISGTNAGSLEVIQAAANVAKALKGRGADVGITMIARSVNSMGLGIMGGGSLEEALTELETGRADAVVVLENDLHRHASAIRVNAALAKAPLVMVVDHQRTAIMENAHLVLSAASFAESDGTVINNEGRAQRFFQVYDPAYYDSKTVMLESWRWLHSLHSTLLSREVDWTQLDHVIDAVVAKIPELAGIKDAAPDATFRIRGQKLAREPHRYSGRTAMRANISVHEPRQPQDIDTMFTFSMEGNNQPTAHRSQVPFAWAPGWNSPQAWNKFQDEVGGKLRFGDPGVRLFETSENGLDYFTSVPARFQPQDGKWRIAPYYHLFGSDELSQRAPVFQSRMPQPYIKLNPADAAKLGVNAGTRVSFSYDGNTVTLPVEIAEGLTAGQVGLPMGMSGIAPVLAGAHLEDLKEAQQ

[3] = molecular target: T1, E. coli respiratory complex I (NADH:ubiquinone oxidoreductase); assay: as above; assay type: biochemical; conditions: reaction started by enzyme (oxidised enzyme); ferricyanide 0.25-2 mM; pH 6.0, 30 °C; ping-pong-pong with double substrate inhibition; read-out: Km, app. ^NADH
[4] = molecular target: T1, E. coli respiratory complex I (NADH:ubiquinone oxidoreductase); assay: as above; assay type: biochemical; conditions: reaction started by enzyme (oxidised enzyme); pH 6.0, 30 °C; off-rate derived from steady-state kinetics, not a Kd
[5] = molecular target: T2, E. coli respiratory complex I (NADH:ubiquinone oxidoreductase); assay: as above; assay type: biochemical; conditions: reaction started by enzyme (oxidised enzyme); pH 6.0, 30 °C; off-rate derived from steady-state kinetics, not a Kd; remark: listed apart in the source
[6] = molecular target: T3, T. thermophilus complex I (Thermus thermophilus, UniProt Q56222); assay: d-NADH:ferricyanide oxidoreductase activity of cytoplasmic membranes, […] nm; assay type: biochemical; conditions: ferricyanide as acceptor; 50 mM Bis-Tris, pH 7.3 (Figure 1 legend), 60 °C
T3 construct: gene nqo1; native complex in isolated T. thermophilus cytoplasmic membranes; with NADH-quinone oxidoreductase subunit 2; NADH-quinone oxidoreductase subunit 3; NADH-quinone oxidoreductase subunit 4; NADH-quinone oxidoreductase subunit 5; NADH-quinone oxidoreductase subunit 6; NADH-quinone oxidoreductase subunit 7; NADH-quinone oxidoreductase subunit 8; NADH-quinone oxidoreductase subunit 9; NADH-quinone oxidoreductase subunit 10; NADH-quinone oxidoreductase subunit 11; NADH-quinone oxidoreductase subunit 12; NADH-quinone oxidoreductase subunit 13; NADH-quinone oxidoreductase subunit 14; NADH-quinone oxidoreductase subunit 15; NADH-quinone oxidoreductase subunit 16
T3 sequence (Q56222 1-438): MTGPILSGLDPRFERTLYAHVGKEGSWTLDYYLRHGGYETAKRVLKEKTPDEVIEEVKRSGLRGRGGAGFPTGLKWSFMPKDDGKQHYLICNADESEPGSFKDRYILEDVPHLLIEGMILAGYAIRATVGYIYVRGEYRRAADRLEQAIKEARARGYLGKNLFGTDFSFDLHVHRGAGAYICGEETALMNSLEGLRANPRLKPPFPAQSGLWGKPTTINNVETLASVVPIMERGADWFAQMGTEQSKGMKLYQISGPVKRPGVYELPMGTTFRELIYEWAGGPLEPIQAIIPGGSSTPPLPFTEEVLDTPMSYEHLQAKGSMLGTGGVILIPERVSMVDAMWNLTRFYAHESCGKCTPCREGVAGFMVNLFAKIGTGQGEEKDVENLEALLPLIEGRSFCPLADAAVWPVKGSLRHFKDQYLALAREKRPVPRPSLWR
T3 sequence (Q56221 2-181 partner): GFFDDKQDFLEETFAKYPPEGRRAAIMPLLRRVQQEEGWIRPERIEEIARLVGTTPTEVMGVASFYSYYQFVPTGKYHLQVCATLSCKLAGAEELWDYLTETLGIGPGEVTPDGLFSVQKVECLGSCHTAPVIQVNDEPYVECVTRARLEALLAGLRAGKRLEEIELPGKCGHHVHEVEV
T3 sequence (Q56223 1-783 partner): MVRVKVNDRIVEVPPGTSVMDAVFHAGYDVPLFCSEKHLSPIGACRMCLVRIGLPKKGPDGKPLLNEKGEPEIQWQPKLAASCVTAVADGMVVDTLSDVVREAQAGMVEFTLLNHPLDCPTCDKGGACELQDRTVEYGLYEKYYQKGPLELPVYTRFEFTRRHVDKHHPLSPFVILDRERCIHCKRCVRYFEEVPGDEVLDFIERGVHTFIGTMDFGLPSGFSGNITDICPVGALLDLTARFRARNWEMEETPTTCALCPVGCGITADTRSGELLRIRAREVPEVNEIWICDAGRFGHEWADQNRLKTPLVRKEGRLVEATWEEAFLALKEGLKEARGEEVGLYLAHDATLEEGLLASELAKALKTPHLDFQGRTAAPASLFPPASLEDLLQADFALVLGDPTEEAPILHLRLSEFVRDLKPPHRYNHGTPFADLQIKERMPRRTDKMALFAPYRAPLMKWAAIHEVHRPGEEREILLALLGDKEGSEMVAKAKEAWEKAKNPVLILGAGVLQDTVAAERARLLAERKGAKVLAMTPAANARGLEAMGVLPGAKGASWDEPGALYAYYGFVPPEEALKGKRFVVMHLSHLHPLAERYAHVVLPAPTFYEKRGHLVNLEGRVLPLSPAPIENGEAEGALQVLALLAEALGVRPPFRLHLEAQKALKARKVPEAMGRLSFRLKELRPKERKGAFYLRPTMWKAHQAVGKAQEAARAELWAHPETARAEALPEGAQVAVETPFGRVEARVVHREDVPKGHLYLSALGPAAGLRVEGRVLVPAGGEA

purified protein = substrate: NC(=O)C1=CN([C@@H]2O[C@H](COP(=O)(O)OP(=O)(O)OC[C@H]3O[C@@H](n4cnc5c(N)ncnc54)[C@H](O)[C@@H]3O)[C@@H](O)[C@H]2O)C=CC1; assay: purified protein; assay type: biochemical, Escherichia coli; conditions: reaction started by enzyme (oxidised enzyme), ferricyanide 0.25-2 mM, pH 6.0, 30 °C, ping-pong-pong with double substrate inhibition

NC(=O)C1=CN([C@@H]2O[C@H](COP(=O)(O)OP(=O)(O)OC[C@H]3O[C@@H](n4cnc5c(N)ncnc54)[C@H](O)[C@@H]3O)[C@@H](O)[C@H]2O)C=CC1 [NADH]
Ki, app. ^NADH [1]: 22 µM | Ki, app. ^NADH [2]: 22 µM | Km [3]: 11 µM

NC(=O)c1ccc[n+]([C@@H]2O[C@H](COP(=O)(O)OP(=O)(O)OC[C@H]3O[C@@H](n4cnc5c(N)ncnc54)[C@H](O)[C@@H]3O)[C@@H](O)[C@H]2O)c1 [NAD^+]
Rate constant: NAD^+ dissociation (s^-1) [4]: 2.4 10^3 | Rate constant: NAD^+ dissociation (s^-1) [5]: 2.3 10^3

NC(=O)C1=CN([C@@H]2O[C@H](COP(=O)(O)OP(=O)(O)OC[C@H]3O[C@@H](n4cnc5c(=O)[nH]cnc54)[C@H](O)[C@@H]3O)[C@@H](O)[C@H]2O)C=CC1 [d-NADH]
d-NADH:ferricyanide oxidoreductase activity of cytoplasmic membranes, 340 nm [6]: T. thermophilus membranes exhibited similar fast reaction rates

B1: E. coli respiratory complex I (NADH:ubiquinone oxidoreductase) (Escherichia coli K-12) (protein)
chain: MKNIIRTPETHPLTWRLRDDKQPVWLDEYRSKNGYEGARKALTGLSPDEIVNQVKDAGLKGRGGAGFSTGLKWSLMPKDESMNIRYLLCNADEMEPGTYKDRLLMEQLPHLLVEGMLISAFALKAYRGYIFLRGEYIEAAVNLRRAIAEATEAGLLGKNIMGTGFDFELFVHTGAGRYICGEETALINSLEGRRANPRSKPPFPATSGAWGKPTCVNNVETLCNVPAILANGVEWYQNISKSKDAGTKLMGFSGRVKNPGLWELPFGTTAREILEDYAGGMRDGLKFKAWQPGGAGTDFLTEAHLDLPMEFESIGKAGSRLGTALAMAVDHEINMVSLVRNLEEFFARESCGWCTPCRDGLPWSVKILRALERGEGQPGDIETLEQLCRFLGPGKTFCAHAPGAVEPLQSAIKYFREEFEAGIKQPFSNTHLINGIQPNLLKERW
notes: whole complex from the nuo operon, His-tagged NuoF, overproduced in E. coli, DDM-solubilised, purified by anion exchange, Ni-IDA and Source Q; with NADH-quinone oxidoreductase subunit E; NADH-quinone oxidoreductase subunit G; NADH-quinone oxidoreductase subunit C/D; NADH-quinone oxidoreductase subunit B; NADH-quinone oxidoreductase subunit I; NADH-quinone oxidoreductase subunit A; NADH-quinone …
Km (purified protein): 11 µM
